According to US20020128264A1, “Methods for treatment of conditions affected by activity of multidrug transporters” (priority 2000, published 2002):
Like-named read-outs stand apart in the source and are kept apart here.

Tests used:
[1] = Intracerebroventricular (icv) efflux from brain; format: in vivo, mice; conditions: icv administration
Procedure: (§1) Male Swiss-Webster CFW mice were supplied by Charles River Laboratories (Hollister, Calif.) and all experiments were conducted according to the NIH Guide on Care and Use of Laboratory Animals. Mice were 2-3 months old at the time of use.
(§2) These experiments were conducted according to the method of Banks et al. (1997) with minor modifications. The skull was exposed and, with a guarded 25 g needle, a hole was made through the skull at 1 mm anterior posterior (AP) and 1 mm lateral left (LL), relative to Bregma, and 3.5 mm dorsal ventral (DV), with respect to the skull. A guarded 1 μL Hamilton syringe (25 g) was used to inject 1 μL of PBS containing ^14C-AIT-082 (˜4.5×10^4 dpm/μL), ^3H-sucrose (˜3×10^4 dpm/μL), or ^3H-quinidine (˜3×10^4 dpm/μL) icv into mice. After injection and upon withdrawing the needle, there was often back flux of fluid that was collected. At various times after injection the amount of radioactivity remaining in the brain was determined. The amount of radioactivity in the back flux and injection mixture was also determined. Radioactivity in brain was corrected for the back flux and the log of this corrected dpm was plotted against time. The t½, was the inverse of the slope of the line multiplied by 0.301 (Banks et al., 1997).
(§3) All data are presented as mean ±S.E. For comparisons of means from 2 groups an unpaired Student's t-test was used. For comparisons of means from 3 groups, ANOVA was performed coupled with Scheffe's post-hoc analysis.

[2] = Taylor et al., 2000, cited from earlier work
[3] = Taylor et al., 2000, cited from earlier work; remark: listed apart in the source
P-gp = target: T1, P-gp (Mus musculus, UniProt P21447); experiment: Effect of AIT-082 on efflux of 3H-quinidine (P-gp substrate) from brain after icv administration; format: in vivo, mice; conditions: quinidine is a P-gp substrate
T1 construct: from tissue; host or cells: brain of living mice (in vivo efflux after icv or ipc injection)
Procedure: as §2, §3

[4] = Intraparenchymal (ipc) efflux from brain; format: in vivo, mice; conditions: ipc administration
Procedure: as §1
These experiments were conducted according the method of Banks et al. (1994) with minor modifications. Mice were anesthetized and then immobilized in a stereotaxic apparatus with a mouse adaptor coupled to a microinjection unit (Kopf, Tujunga, Calif.). A small hole was made in the skull with a Dremel drill (model 770; 2.4 mm drill bit, model 107) at −1 mm AP and 1 mm LL relative to Bregma. Using a guarded 0.5 μL Hamilton syringe (25 g), 0.1 μL PBS containing ^14C-AIT-082 ([…]) or ^3H-sucrose (˜5×10^4 dpm/μL) was injected ipc at […] with respect to the skull. Back flux of injection fluid was collected and at various times after injection brains were removed. The amount of radioactivity in brain, back flux and injection mixture was measured. The amount of radioactivity in the brain was corrected for the back flux and the log of this corrected dpm was plotted against time. The t½ was calculated as described above.
as §3

MRPs [5] = experiment: Effect of MRP inhibitors on efflux of 14C-AIT-082 from brain after ipc administration; format: in vivo, mice; conditions: ipc co-administration with 14C-AIT-082
Procedure: Mice were anesthetized and then immobilized in a stereotaxic apparatus with a mouse adaptor coupled to a microinjection unit (Kopf, Tujunga, Calif.). […] Back flux of injection fluid was collected and at various times after injection brains were removed. The amount of radioactivity in brain, back flux and injection mixture was measured. The amount of radioactivity in the brain was corrected for the back flux and the log of this corrected dpm was plotted against time. The t½ was calculated as described above.
As above, all experiments included a control group in which ^14C-AIT-082 was administered in PBS.

MRPs [6] = experiment: Effect of MRP inhibitors on efflux of 14C-AIT-082 from brain after icv administration; format: in vivo, mice; conditions: icv co-administration with 14C-AIT-082
Procedure: To examine the role of P-gp and MRP, various substrates/inhibitors were co-administered with ^14C-AIT-082. […] In all experiments the control group of animals was given ^14C-AIT-082 in PBS. Additionally, in experiments in which probenecid or verapamil were used, a second control group was given ^14C-AIT-082 in PBS containing 370 mM NaOH and 370 mM HCl, pH 7.4, or 14C-AIT-082 in PBS with 4.2% ethanol, pH 7.4, respectively.
All data are presented as mean ±S.E. For comparisons of means from 2 groups an unpaired Student's t-test was used. […]

[7] = passively transported compound, t½ significantly higher

T1 sequence (P21447 whole entry): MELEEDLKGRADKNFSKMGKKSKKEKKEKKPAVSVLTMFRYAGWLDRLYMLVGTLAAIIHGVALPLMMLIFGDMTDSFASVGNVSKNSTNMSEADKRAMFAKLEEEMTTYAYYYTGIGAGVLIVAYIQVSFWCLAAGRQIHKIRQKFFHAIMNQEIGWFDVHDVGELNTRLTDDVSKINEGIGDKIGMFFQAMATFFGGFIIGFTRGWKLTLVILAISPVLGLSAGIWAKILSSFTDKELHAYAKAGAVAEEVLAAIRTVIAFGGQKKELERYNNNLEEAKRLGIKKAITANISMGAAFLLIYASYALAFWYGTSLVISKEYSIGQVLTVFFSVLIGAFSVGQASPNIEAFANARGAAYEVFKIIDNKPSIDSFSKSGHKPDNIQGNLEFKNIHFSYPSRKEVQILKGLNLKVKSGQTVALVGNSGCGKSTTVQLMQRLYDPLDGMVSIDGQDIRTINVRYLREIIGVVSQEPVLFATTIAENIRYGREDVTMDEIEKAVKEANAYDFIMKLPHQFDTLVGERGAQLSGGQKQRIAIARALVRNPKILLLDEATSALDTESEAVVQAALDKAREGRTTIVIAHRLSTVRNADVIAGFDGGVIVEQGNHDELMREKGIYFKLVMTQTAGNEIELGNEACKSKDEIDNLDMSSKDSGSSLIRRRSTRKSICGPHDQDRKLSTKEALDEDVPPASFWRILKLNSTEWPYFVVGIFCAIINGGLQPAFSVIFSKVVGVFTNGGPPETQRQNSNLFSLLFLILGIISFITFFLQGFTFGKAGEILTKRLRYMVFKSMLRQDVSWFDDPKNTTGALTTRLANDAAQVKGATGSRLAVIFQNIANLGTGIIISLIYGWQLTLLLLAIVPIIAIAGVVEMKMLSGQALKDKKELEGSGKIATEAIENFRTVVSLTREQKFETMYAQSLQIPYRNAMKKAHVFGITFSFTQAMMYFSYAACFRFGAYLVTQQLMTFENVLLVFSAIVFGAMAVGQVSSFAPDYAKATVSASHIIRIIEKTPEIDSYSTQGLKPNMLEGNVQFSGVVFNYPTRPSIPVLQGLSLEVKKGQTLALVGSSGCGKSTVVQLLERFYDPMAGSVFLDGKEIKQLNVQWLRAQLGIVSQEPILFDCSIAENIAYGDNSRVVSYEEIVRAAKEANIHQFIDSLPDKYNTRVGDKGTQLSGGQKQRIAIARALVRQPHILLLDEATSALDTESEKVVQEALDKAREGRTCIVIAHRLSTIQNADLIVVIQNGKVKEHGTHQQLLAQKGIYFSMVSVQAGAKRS

Question: With `O=C(CCn1cnc2c(=O)[nH]cnc21)Nc1ccc(C(=O)O)cc1` [AIT-082, N-4-carboxyphenyl-3-(6-oxohydropurin-9-yl)propanamide] as the compound, how does the “effect of excess unlabeled AIT-082 on efflux of 14C-AIT-082 from brain (saturability)” value [1] read?
Answer: inhibited

Question: What about the “t½ of transport out of brain” value ([1]; mice, mean ±S.E.) of the same compound?
Answer: 20 ± 1.0 min

Question: And the “effect of excess unlabeled AIT-082 on efflux of 14C-AIT-082 from brain” value [2]?
Answer: inhibited

Question: And the “t½ of transport out of brain” value ([2]; after intracerebroventricular administration)?
Answer: approximately 20 minutes

Question: What about the “mechanism of transport into brain” value [3] of the same compound?
Answer: non-saturable mechanism

Question: And the “amount detectable in cortical extracellular fluid” value ([3]; capillary depletion and microdialysis)?
Answer: low micromolar quantities

Question: What about the “effect on efflux of 3H-quinidine from brain” value (P-gp) of the same compound?
Answer: inhibited

Question: What about the “effect of excess unlabeled AIT-082 on efflux of 14C-AIT-082 from brain (saturability)” value [4] of the same compound?
Answer: inhibited

Question: And the “t½ of transport out of brain” value ([4]; mice, mean ±S.E.)?
Answer: 35.0 ± 1.9 min

Question: With `OC[C@H]1O[C@@](CO)(O[C@H]2O[C@H](CO)[C@@H](O)[C@H](O)[C@H]2O)[C@@H](O)[C@@H]1O` [^3H-sucrose, sucrose, reference compound] as the compound, how does the “transport out of brain compared with 14C-AIT-082” value [1, 7] read?
Answer: significantly slower

Question: And the “transport out of brain compared with 14C-AIT-082” value [4, 7]?
Answer: significantly slower

Question: Which “effect on efflux of 14C-AIT-082 from brain” value (MRPs [5]) does the source give for `CCCN(CCC)S(=O)(=O)c1ccc(C(=O)O)cc1` [probenecid] here?
Answer: significantly inhibited

Question: And the “effect on efflux of 14C-AIT-082 from brain” value (MRPs [6])?
Answer: significantly inhibited
